What was measured:
[1] = tested on: B. cenocepacia K56-2; type: cell-based, Burkholderia cenocepacia; conditions: B. cenocepacia K56-2; CAMHB, 18 h, 37 °C
[2] = tested on: B. lata BCC6; type: cell-based, Burkholderia lata; conditions: B. lata BCC6
[3] = tested on: B. contaminans MF16; type: cell-based, Burkholderia contaminans; conditions: B. contaminans MF16
[4] = tested on: B. contaminans FFH-2050MA; type: cell-based, Burkholderia contaminans; conditions: B. contaminans FFH-2050MA
[5] = tested on: B. dolosa CEP021; type: cell-based, Burkholderia dolosa; conditions: B. dolosa CEP021
[6] = tested on: B. multivorans ATCC17616; type: cell-based, Burkholderia multivorans; conditions: B. multivorans ATCC17616
[7] = tested on: B. cenocepacia 140485; type: cell-based, Burkholderia cenocepacia; conditions: B. cenocepacia 140485
[8] = tested on: B. ubonensis LMG 20358; type: cell-based, Burkholderia ubonensis; conditions: B. ubonensis LMG 20358
[9] = tested on: B. contaminans FFH-4004; type: cell-based, Burkholderia contaminans; conditions: B. contaminans FFH-4004
[10] = tested on: B. mallei China 5 (NBL 4); type: cell-based, Burkholderia mallei
[11] = tested on: B. mallei Ivan (NCTC 10230); type: cell-based, Burkholderia mallei
[12] = tested on: B. mallei China 7 (NBL 7); type: cell-based, Burkholderia mallei
[13] = tested on: B. pseudomallei 1710b; type: cell-based, Burkholderia pseudomallei
[14] = tested on: B. pseudomallei MSHR465a; type: cell-based, Burkholderia pseudomallei
[15] = tested on: B. pseudomallei HBPUB10134a; type: cell-based, Burkholderia pseudomallei
[16] = tested on: B. mallei; type: cell-based, Burkholderia mallei; conditions: range over B. mallei strains
[17] = tested on: B. pseudomallei; type: cell-based, Burkholderia pseudomallei
[18] = tested on: members of the Bcc; experiment: MIC, summary over Bcc panel; type: cell-based, Burkholderia cepacia complex; conditions: text summary over Bcc panel (most of the MICs)
[19] = tested on: Gram-negative bacteria; design: method as in PMID 25831516; conditions: cited from earlier work

CC(=O)OC[C@H]1O[C@@H]([S-])[C@H](OC(C)=O)[C@@H](OC(C)=O)[C@@H]1OC(C)=O.CCP(CC)CC.[Au+] [Auranofin]
MIC [1]: >128 µg/mL
MIC [2]: 128 µg/mL
MIC [3]: 128 µg/mL
MIC [4]: 128 µg/mL
MIC [5]: >128 µg/mL
MIC [6]: 128 µg/mL
MIC [7]: 128 µg/mL
MIC [8]: >128 µg/mL
MIC [9]: >128 µg/mL
MIC [10]: 0.25 µg/mL
MIC [11]: 0.5 µg/mL
MIC [12]: 1 µg/mL
MIC [13]: 64 µg/mL
MIC [14]: 64 µg/mL
MIC [15]: 64 µg/mL
MICs against B. mallei [16]: 0.25 to 1 µg/mL
MIC in B. pseudomallei [17]: 64 µg/mL
MICs against members of the Bcc [18]: ≥ 128 µg/mL
MICs against Gram-negative bacteria [19]: > 16 mg/L
